From patent US9169252B2 (BRISTOL-MYERS SQUIBB COMPANY, priority 2014, dated 2015)
Where a name gives a salt, the structure may show the parent alone. Read-outs that look alike come from different tables or passages of the source.

Experiments:
[1] = tested on: TLR2 induced IL-6 in peripheral blood mononuclear cells (PBMCs); assay: PBMC TLR2 Induced IL-6 Assay; format: cell-based, human; conditions: for EC50: read-out: Cell EC50; for IC50: read-out: Cell IC50
Procedure, shortened: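 Lipoteichoic acid at 10 µg/ml served as TLR2 stimulus for 5 hours, following a 30-minute compound pretreatment at 37° C. Cells were Ficoll-isolated human PBMCs, 250000 cells/well, cultured in RPMI plus 10% heat-inactivated FCS.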

IRAK4 = IRAK4 (Homo sapiens (Human), UniProt Q9NWZ3); assay: IRAK4 Inhibition Assay; format: biochemical; conditions: IRAK4 Inhibition Assay, ATP 500 μM, read-out: IRAK4 IC50
Procedure, shortened: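 IRAK4 combined with fluorescent substrate and compounds, reacted 60 min at room temperature, stopped with 35 mM EDTA. Substrate and phosphorylated product separated electrophoretically on a Caliper LabChip 3000 mobility-shift reader.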

[2] = Homo sapiens, PBMC, PBMC TLR2 Induced IL-6 Assay, lipoteichoic acid stimulation, IL-6 by ELISA
[3] = PBMC TLR2 Induced IL-6 Assay, lipoteichoic acid stimulation, IL-6 by ELISA

IRAK4, sequence (Q9NWZ3 whole entry, species assumed): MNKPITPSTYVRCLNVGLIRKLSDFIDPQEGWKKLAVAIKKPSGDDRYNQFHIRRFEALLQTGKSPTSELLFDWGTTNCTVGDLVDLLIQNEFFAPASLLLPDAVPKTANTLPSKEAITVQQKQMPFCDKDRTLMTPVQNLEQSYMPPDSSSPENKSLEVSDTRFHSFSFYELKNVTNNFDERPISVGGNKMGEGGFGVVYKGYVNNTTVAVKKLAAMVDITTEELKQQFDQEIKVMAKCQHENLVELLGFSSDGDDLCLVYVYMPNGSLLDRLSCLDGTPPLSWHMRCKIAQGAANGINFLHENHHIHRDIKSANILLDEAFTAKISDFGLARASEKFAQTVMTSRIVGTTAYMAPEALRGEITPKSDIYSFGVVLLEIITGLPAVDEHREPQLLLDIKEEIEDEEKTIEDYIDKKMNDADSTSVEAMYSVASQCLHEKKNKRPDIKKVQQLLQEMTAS

Row | SMILES | IC50 (IRAK4) [nM] | EC50 [1, 2] [nM] | also measured
1 | CC(C)Nc1cc(-n2ncc3cc(C#N)cnc32)ncc1C(=O)NC[C@@H](F)C(C)(C)OP(=O)(O)O [Example 191, (R)-4-(6-(5-Cyano-1H-pyrazolo[3,4-b]pyridin-1-yl)-4-(isopropylamino)nicotinamido)-3-fluoro-2-methylbutan-2-yl dihydrogen phosphate] | 14.7 | 10000 | 
2 | CC(C)Nc1cc(-n2ncc3cc(C#N)cnc32)ncc1C(=O)NC[C@@H](F)C(C)(C)O [Example 192, (R)-6-(5-Cyano-1H-pyrazolo[3,4-b]pyridin-1-yl)-N-(2-fluoro-3-hydroxy-3-methylbutyl)-4-(isopropylamino)nicotinamide, hydrochloride] |  |  | EC50 ([1]; PBMC TLR2 Induced IL-6 Assay, lipoteichoic acid stimulation, IL-6 by ELISA, hydrochloride): 120 nM; IC50 (IRAK4; hydrochloride): 2.6 nM
3 | COc1cnc2c(cnn2-c2cc(NC(C)C)c(C(=O)NC[C@@H](F)C(C)(C)O)cn2)c1 [Example 195] | 19.4 | 340 | IC50 [1, 2]: 647 nM
4 | CC(C)Nc1cc(-n2ncc3cc(C#N)cnc32)ncc1C(=O)NC[C@H](F)C(C)(C)O [Example 196] | 10.4 | 304 | IC50 [1, 2]: 328 nM
5 | CC(C)Nc1cc(-n2ncc3cc(C#N)cnc32)ncc1C(=O)NCCCN1CCOCC1 [Example 201] | 16.3 | 583 | 
6 | CC(C)Nc1cc(-n2ncc3cc(C#N)cnc32)ncc1C(=O)NCC(=O)N1CCOCC1 [Example 206] | 14.4 | 86 | 
7 | COC(=O)CCNC(=O)c1cnc(-n2ncc3cc(C#N)cnc32)cc1NC(C)C [Example 207] | 10.3 | 227 | 
8 | CCOP(=O)(CCNC(=O)c1cnc(-n2ncc3cc(C#N)cnc32)cc1NC(C)C)OCC [Example 208] | 16 |  | EC50 ([1]; Homo sapiens, PBMC): 238 nM
9 | CCNC(=O)CCNC(=O)c1cnc(-n2ncc3cc(C#N)cnc32)cc1NC(C)C [Example 212] | 12.4 | 192 | 
10 | CC(C)Nc1cc(-n2ncc3cc(C#N)cnc32)ncc1C(=O)NCCCc1ncn[nH]1 [Example 213] | 14.8 | 428 | 
11 | Cc1cnc2c(cnn2-c2cc(NC(C)C)c(C(=O)N[C@H]3CC[C@H](C(C)(C)O)CC3)cn2)c1 [Example 214] | 13.6 | 209 | 
12 | CC(C)Nc1cc(-n2ncc3cc(C#N)cnc32)ncc1C(=O)Nc1ccc(O)cn1 [Example 217] | 15.5 | 503 | 
13 | CNC(=O)C[C@H]1CC[C@H](NC(=O)c2cnc(-n3ncc4cc(C#N)cnc43)cc2NC(C)C)CC1 [Example 218] | 19.5 | 111 | 
14 | CC(C)Nc1cc(-n2ncc3cc(C#N)cnc32)ncc1C(=O)NCCNS(C)(=O)=O [Example 219] | 14.9 | 502 | IC50 [1, 2]: 678 nM
15 | CC(C)Nc1cc(-n2ncc3cc(C#N)cnc32)ncc1C(=O)Nc1ccc(N2CCOCC2)cn1 [Example 221] | 8.4 | 230 | 
16 | CC(C)Nc1cc(-n2ncc3cc(C#N)cnc32)ncc1C(=O)Nc1ccc(OCCN(C)C)cn1 [Example 225] | 9.2 | 98 | 
17 | CNC(=O)[C@H](F)CNC(=O)c1cnc(-n2ncc3cc(C#N)cnc32)cc1NC(C)C [Example 229] | 9.6 | 137 | IC50 [1, 2]: 1420 nM
18 | CC(C)Nc1cc(-n2ncc3cc(C#N)cnc32)ncc1C(=O)NC[C@@H](F)C(=O)N[C@@H](C)CO [Example 230] | 13.4 | 410 | IC50 [1, 2]: 459 nM
19 | CC(C)Nc1cc(-n2ncc3cc(C(F)F)cnc32)ncc1C(=O)NC[C@@H](F)C(C)(C)O [Example 231] | 14.2 | 237 | IC50 [1, 2]: 544 nM
20 | CC(C)Nc1cc(-n2ncc3cc(C#N)cnc32)ncc1C(=O)Nc1ccc(C(C)(C)O)cn1 [Example 236] | 11.6 | 323 | 
21 | CC(O)CCNC(=O)c1cnc(-n2ncc3cc(C#N)cnc32)cc1NC(C)C (stereo not drawn) [Example 238] | 8.1 | 357 | IC50 [1, 3]: 1810 nM
22 | CC(C)Nc1cc(-n2ncc3cc(C#N)cnc32)ncc1C(=O)NC1CCN(c2ncccn2)CC1 [Example 240] | 15.7 | 305 | 

Further compounds by falling IC50 (IRAK4), results first:

Row | IC50 (IRAK4) [nM] | SMILES | EC50 [1, 2] [nM] | also measured
23 | 8.1 | CC(C)NC(=O)[C@H](F)CNC(=O)c1cnc(-n2ncc3cc(C#N)cnc32)cc1NC(C)C [Example 197] | 297 | 
24 | 8.1 | CC(C)Nc1cc(-n2ncc3cc(C#N)cnc32)ncc1C(=O)NCCN1CCS(=O)(=O)CC1 [Example 211] | 87 | 
25 | 7.3 | CC(C)Nc1cc(-n2ncc3cc(C#N)cnc32)ncc1C(=O)Nc1ccc(N2CCN(C)CC2)cn1 [Example 241] | 292 | 
26 | 6.9 | CC(C)Nc1cc(-n2ncc3cc(C#N)cnc32)ncc1C(=O)Nc1ccc(N(C)C)nc1 [Example 228] | 163 | 
27 | 6.8 | CC(C)Nc1cc(-n2ncc3cc(C#N)cnc32)ncc1C(=O)Nc1ccc(CN2CCOCC2)cc1 [Example 226] | 248 | 
28 | 6.7 | CC(C)Nc1cc(-n2ncc3cc(C#N)cnc32)ncc1C(=O)Nc1cnc(N2CCOCC2)nc1 [Example 224] | 303 | IC50 [1, 2]: 159 nM
29 | 6.7 | CC(C)Nc1cc(-n2ncc3cc(C#N)cnc32)ncc1C(=O)NCCC1(O)CCOC1 (stereo not drawn) [Example 237] | 102 | IC50 [1, 2]: 364 nM
30 | 6.5 | CC(C)Nc1cc(-n2ncc3cc(C#N)cnc32)ncc1C(=O)NCCC1CCCCO1 (stereo not drawn) [Example 220] | 168 | 
31 | 6.3 | CCCCNC(=O)c1cnc(-n2ncc3cc(C#N)cnc32)cc1NC(C)C [Example 199] | 281 | 
32 | 6.1 | CC(C)Nc1cc(-n2ncc3cc(C#N)cnc32)ncc1C(=O)NCCC1(O)CCOCC1 [Example 235] | 184 | 
33 | 5.3 | CC(C)Nc1cc(-n2ncc3cc(C#N)cnc32)ncc1C(=O)Nc1ccc(N2CCNCC2)nc1 [Example 227] | 55 | 
34 | 5.3 | CC(O)CCNC(=O)c1cnc(-n2ncc3cc(C#N)cnc32)cc1NC(C)C (stereo not drawn) [Example 239] |  | EC50 [1, 3]: 211 nM; IC50 [1, 3]: 775 nM
35 | 5.3 | CC(C)Nc1cc(-n2ncc3cc(C#N)cnc32)ncc1C(=O)NCC(F)C1(O)COC1 (stereo not drawn) [Example 243] | 298 | IC50 [1, 3]: 1990 nM
36 | 5.1 | CC(C)Nc1cc(-n2ncc3cc(C#N)cnc32)ncc1C(=O)Nc1ccc(N2CCOCC2)cc1 [Example 222] | 305 | 
37 | 4.9 | CC(C)Nc1cc(-n2ncc3cc(C#N)cnc32)ncc1C(=O)NCCN1CCOCC1 [Example 204] | 174 | 
38 | 4.7 | CC(C)(CO)Nc1cc(-n2ncc3cc(C#N)cnc32)ncc1C(=O)NC[C@@H](F)C(C)(C)O [Example 234] | 128 | IC50 [1, 2]: 1360 nM
39 | 4.5 | CC(C)Nc1cc(-n2ncc3cc(C#N)cnc32)ncc1C(=O)Nc1ccc(N2CCOCC2)nc1 [Example 216] | 253 | 
40 | 4 | CC(C)Nc1cc(-n2ncc3cc(C#N)cnc32)ncc1C(=O)Nc1cc2cc[nH]c2cn1 [Example 223] |  | IC50 [1, 2]: 178 nM
41 | 3.7 | CCOC(C)(C)[C@H](F)CNC(=O)c1cnc(-n2ncc3cc(C#N)cnc32)cc1NC(C)C [Example 215] | 144 | 
42 | 3.4 | CC[C@@H](C)Nc1cc(-n2ncc3cc(C#N)cnc32)ncc1C(=O)NCCC(C)(C)O [Example 193, (R)-4-(sec-Butylamino)-6-(5-cyano-1H-pyrazolo[3,4-b]pyridin-1-yl)-N-(3-hydroxy-3-methylbutyl)nicotinamide] |  | IC50 [1, 2]: 287 nM
43 | 3.4 | COC1CCC(NC(=O)c2cnc(-n3ncc4cc(C#N)cnc43)cc2NC(C)C)CC1 (stereo not drawn) [Example 198] | 134 | 
44 | 3.1 | [2H]C([2H])([2H])OC(C)(C)[C@H](F)CNC(=O)c1cnc(-n2ncc3cc(C#N)cnc32)cc1NC(C)C [Example 210] | 206 | 
45 | 2.8 | COC(C)(C)[C@H](F)CNC(=O)c1cnc(-n2ncc3cc(C#N)cnc32)cc1NC(C)C [Example 200] | 79 | 
